36 molecules from patent publication US20250353841A1 (BIOGEN MA INC., priority 2022, published 2025) can be followed below.

The test system of this assay is mutant Huntington (HTT) protein. Put plainly: HTT Mutant HTRF iPSC assay (mHTT protein lowering). The settings on record: human iPSC derived from a HTT patient with a poly-Q49 mutation. The format is cell-based. (In general: TR-FRET usually uses a lanthanide donor and a delayed reading to cut background.)
Consider `COCCN1CCC(c2nc3c(F)cc(-c4cc(C)c5nc(C)cn5n4)cn3n2)CC1` [Compound 439, 6-(2,8-dimethylimidazo[1,2-b]pyridazin-6-yl)-8-fluoro-2-[1-(2-methoxyethyl)-4-piperidyl]-[1,2,4]triazolo[1,5-a]pyridine], for which the half-maximal inhibitory concentration (IC50) (as a rule, the concentration needed to halve the response being measured) was 100 to 1000 nM.
The molecule `COc1cc(-c2cc(F)c3nc(C4CCNCC4)cn3c2)cc2cn(C)nc12` [Compound 83, 5-(8-fluoro-2-(piperidin-4-yl)imidazo[1,2-a]pyridin-6-yl)-7-methoxy-2-methyl-2H-indazole] came in with a half-maximal inhibitory concentration (IC50) of 100 to 1000 nM.
Under `Cc1cn2nc(-c3cc(F)c4nc(NC(=O)C5CN(C6COC6)C5)cn4c3)cc(C)c2n1` [Compound 254, N-(6-(2,8-dimethylimidazo[1,2-b]pyridazin-6-yl)-8-fluoroimidazo[1,2-a]pyridin-2-yl)-1-(oxetan-3-yl)azetidine-3-carboxamide] stands less than 100 nM; under `COc1cc(-c2cc(F)c3nn(C)cc3c2)cc2cn(C3CCNCC3)nc12` [Compound 543, 7-fluoro-7′-methoxy-2-methyl-2′-(piperidin-4-yl)-2H,2′H-5,5′-biindazole], 1000 to 9000 nM.
For `Cc1cn2nc(-c3cc(F)c4nc(C(=O)NC5CN(C(C)C)C5)cn4c3)cc(C)c2n1` [Compound 331, 6-(2,8-dimethylimidazo[1,2-b]pyridazin-6-yl)-8-fluoro-N-(1-isopropylazetidin-3-yl)imidazo[1,2-a]pyridine-2-carboxamide] the value was less than 100 nM.
On to `Cc1cn2nc(-c3cc(F)c4nc(C5CCNC(C)(C)C5)cn4c3)cc(C)c2n1` (single isomer, unassigned) [Compound 234], for which the 50% inhibitory concentration (IC50) was less than 100 nM.
`Cc1cn2nc(-c3cc(F)c4nc([C@@]56CC[C@H](C5)NC6)cn4c3)cc(C)c2n1` (single isomer, unassigned) [Compound 116]: the half-inhibitory concentration (IC50) fell in the range of 1000 to 9000 nM.
For `Cc1nc2ccc(-c3cc(F)c4nc(C5CCNCC5)cn4c3)nn2n1` [Compound 577, 6-(8-fluoro-2-(piperidin-4-yl)imidazo[1,2-a]pyridin-6-yl)-2-methyl-[1,2,4]triazolo[1,5-b]pyridazine] the value was less than 100 nM.
In turn, `CCN1CCC(c2cn3cc(-c4cc(C)c5nn(C)cc5c4)cc(F)c3n2)CC1` [Compound 25, 5-(2-(1-ethylpiperidin-4-yl)-8-fluoroimidazo[1,2-a]pyridin-6-yl)-2,7-dimethyl-2H-indazole] had an IC50 of 100 to 1000 nM.
`Cc1cn2nc(-c3cc(F)c4nn(C5CCNCC5)cc4c3)ccc2n1` [Compound 365, 6-(7-fluoro-2-(piperidin-4-yl)-2H-indazol-5-yl)-2-methylimidazo[1,2-b]pyridazine] had an IC50 of less than 100 nM.
Molecule `Cc1cn2nc(-c3cc(F)c4nc(C5C6CCC5CNC6)cn4c3)cc(C)c2n1` (stereo not drawn) [Compound 183, 6-(2-(3-azabicyclo[3.2.1]]octan-8-yl)-8-fluoroimidazo[1,2-a]pyridin-6-yl)-2,8-dimethylimidazo[1,2-blpyridazine] yielded an IC50 of 100 to 1000 nM.
Under `Cc1cn2nc(-c3cc(F)c4nc(C5CCN(C6CC6)CC5)cn4c3)cc(C(F)F)c2n1` [Compound 167, 6-(2-(1-cyclopropylpiperidin-4-yl)-8-fluoroimidazo[1,2-a]pyridin-6-yl)-8-(difluoromethyl)-2-methylimidazo[1,2-b]pyridazine] stands less than 100 nM; under `Cc1cn2nc(-c3cc(F)c4nc(C5CCN(C6COC6)CC5)cn4c3)cc(C)c2n1` [Compound 99, 6-(8-fluoro-2-(1-(oxetan-3-yl)piperidin-4-yl)imidazo[1,2-a]pyridin-6-yl)-2,8-dimethylimidazo[1,2-b]pyridazine], less than 100 nM; under `Cc1cn2nc(-c3cc(OC(F)(F)F)c4nc(C5CCNCC5)cn4c3)cc(C)c2n1` [Compound 549, 2,8-dimethyl-6-(2-(piperidin-4-yl)-8-(trifluoromethoxy)imidazo[1,2-a]pyridin-6-yl)imidazo[1,2-b]pyridazine], 100 to 1000 nM.
Under `Cc1cn2nc(-c3cc(F)c4nc(C5CCN(C)C5)cn4c3)cc(C)c2n1` (single isomer, unassigned) [Compound 186] stands 100 to 1000 nM; under `Cc1cn2nc(-c3cc(F)c4nc(C5CCN(C6COC6C)CC5)cn4c3)cc(C)c2n1` (stereo not drawn) [Compound 213, 6-(8-fluoro-2-(1-(2-methyloxetan-3-yl)piperidin-4-yl)imidazo[1,2-a]pyridin-6-yl)-2,8-dimethylimidazo[1,2-b]pyridazine], 100 to 1000 nM.
`Cc1cn2nc(-c3cc(F)c4nn(C5CCNCC5)nc4c3)cc(C)c2n1` [Compound 139, 6-(2,8-dimethylimidazo[1,2-b]pyridazin-6-yl)-4-fluoro-2-(piperidin-4-yl)-2H-benzo[d][1,2,3]triazole] displayed an IC50 of less than 100 nM.
For `CCC1(N(C)C)CCN(c2nc3c(F)cc(-c4cc(C)c5nc(C)cn5n4)cc3o2)CC1` [Compound 492, 1-(6-(2,8-dimethylimidazo[1,2-b]pyridazin-6-yl)-4-fluorobenzo[d]oxazol-2-yl)-4-ethyl-N,N-dimethylpiperidin-4-amine] the value was less than 100 nM.
Under `Cc1cn2nc(-c3cn4cc(C5CCN(C)CC5)cc(F)c4n3)cc(C)c2n1` [Compound 133, 6-[8-fluoro-6-(1-methyl-4-piperidyl)imidazo[1,2-a]pyridin-2-yl]-2,8-dimethyl-imidazo[1,2-b]pyridazine] stands 1000 to 9000 nM; under `Cc1cn2nc(-c3cc(F)c4nc(C5CCN(C)CC5)cn4c3)ccc2n1` [Compound 4, 6-[8-fluoro-2-(1-methyl-4-piperidyl)imidazo[1,2-a]pyridin-6-yl]-2-methyl-imidazo[1,2-b]pyridazine], 100 to 1000 nM; under `Cc1cn2nc(-c3cc(F)c4nc([C@H]5CCNC5)cn4c3)cc(C)c2n1` (single isomer, unassigned) [Compound 190], 100 to 1000 nM.
`CNCCc1cn2cc(-c3ccc4nn(C)cc4c3)cc(F)c2n1` [Compound 22, 2-(8-fluoro-6-(2-methyl-2H-indazol-5-yl)imidazo[1,2-a]pyridin-2-yl)-N-methylethan-1-amine] yielded an IC50 of 1000 to 9000 nM.
For `Cc1cc(-c2cc(F)c3nc(C4CCNCC4)cn3c2)cc2cn(C)nc12` [Compound 94, 5-(8-fluoro-2-(piperidin-4-yl)imidazo[1,2-a]pyridin-6-yl)-2,7-dimethyl-2H-indazole], the 50% inhibitory concentration (IC50) lay within 100 to 1000 nM.
For `CCOc1nccc2oc(-c3cc(F)c4nc(C5CCNCC5)cn4c3)cc12` [Compound 41, 4-ethoxy-2-(8-fluoro-2-(piperidin-4-yl)imidazo[1,2-a]pyridin-6-yl)furo[3,2-c]pyridine] the value was 1000 to 9000 nM; for `CCN1CCC(N(C)c2nc3c(F)cc(-c4cc(C)c5nc(C)cn5n4)cc3o2)CC1` [Compound 502, 6-(2,8-dimethylimidazo[1,2-b]pyridazin-6-yl)-N-(1-ethylpiperidin-4-yl)-4-fluoro-N-methylbenzo[d]oxazol-2-amine], less than 100 nM; for `Cc1cn2nc(-c3cc(F)c4nn(C5CCNC(C)(C)C5)nc4c3)cc(C)c2n1` (racemic) [Compound 394, 6-(2,8-dimethylimidazo[1,2-b]pyridazin-6-yl)-2-(2,2-dimethylpiperidin-4-yl)-4-fluoro-2H-benzo[d][1,2,3]triazole], 100 to 1000 nM.
`Cc1cn2nc(-c3cc(F)c4[nH]c(C5CCN(CC6CC6)CC5)nc4c3)cc(C)c2n1` [Compound 422, 6-(2-(1-(cyclopropylmethyl)piperidin-4-yl)-7-fluoro-1H-benzo[d]imidazol-5-yl)-2,8-dimethylimidazo[1,2-b]pyridazine] had an IC50 of less than 100 nM.
Under `Fc1cc(-c2ccc3nc(C(F)F)cn3n2)cc2cn(C3CCNCC3)nc12` [Compound 352, 2-(difluoromethyl)-6-(7-fluoro-2-(piperidin-4-yl)-2H-indazol-5-yl)imidazo[1,2-b]pyridazine] stands 1000 to 9000 nM; under `CCN1CCC(c2cn3cc(-c4cc(C)c5nc(C)cn5n4)cc(F)c3n2)CC1` [Compound 112, 6-(2-(1-ethylpiperidin-4-yl)-8-fluoroimidazo[1,2-a]pyridin-6-yl)-2,8-dimethylimidazo[1,2-b]pyridazine], less than 100 nM; under `Cc1cn2nc(-c3cc(F)c4nc([C@H]5[C@@H]6CN(C7CC(F)(F)C7)C[C@@H]65)cn4c3)cc(C)c2n1` [Compound 218, 6-(2-((1R,5S,6r)-3-(3,3-difluorocyclobutyl)-3-azabicyclo[3.1.0]hexan-6-yl)-8-fluoroimidazo[1,2-a]pyridin-6-yl)-2,8-dimethylimidazo[1,2-b]pyridazine], 100 to 1000 nM.
For `COCCN1CC(NC(=O)c2cn3cc(-c4cc(C)c5nc(C)cn5n4)cc(F)c3n2)C1` [Compound 338, 6-(2,8-dimethylimidazo[1,2-b]pyridazin-6-yl)-8-fluoro-N-[1-(2-methoxyethyl)azetidin-3-yl]imidazo[1,2-a]pyridine-2-carboxamide] the value was less than 100 nM; for `Cc1cn2nc(-c3cc(F)c4nc(CC5CCN(C)CC5)cn4c3)cc(C)c2n1` [Compound 237, 6-(8-fluoro-2-((1-methylpiperidin-4-yl)methyl)imidazo[1,2-a]pyridin-6-yl)-2,8-dimethylimidazo[1,2-b]pyridazine], less than 100 nM.
For the molecule `Cc1cc2nc(-c3cc(F)c4nc([C@H]5[C@@H]6CN(C)C[C@@H]65)cn4c3)cc(C)n2n1` [Compound 223, 5-(8-fluoro-2-((1R,5S,6r)-3-methyl-3-azabicyclo[3.1.0]hexan-6-yl)imidazo[1,2-a]pyridin-6-yl)-2,7-dimethylpyrazolo[1,5-a]pyrimidine], the IC50 was in the range of 100 to 1000 nM.
Regarding `Fc1ccc2nc(-c3cc(F)c4nc(C5CCNCC5)cn4c3)cn2c1` [Compound 122, 6,8′-difluoro-2′-(piperidin-4-yl)-2,6′-biimidazo[1,2-a]pyridine], the half-maximal inhibitory concentration (IC50) is 1000 to 9000 nM.
As to `CC(=O)N1CCC(c2cn3cc(-c4cc(C)c5nc(C)cn5n4)cc(F)c3n2)CC1` [Compound 74, 1-[4-[6-(2,8-dimethylimidazo[1,2-b]pyridazin-6-yl)-8-fluoro-imidazo[1,2-a]pyridin-2-yl]-1-piperidyl]ethanone], the half-maximal inhibitory concentration (IC50) was 100 to 1000 nM.
The molecule `Cc1cn2nc(-c3cc(F)c4nc([C@H]5C[C@@]6(CCN(C)C6)C5)cn4c3)cc(C)c2n1` [Compound 202, 6-(8-fluoro-2-((2r,4r)-6-methyl-6-azaspiro[3.4]octan-2-yl)imidazo[1,2-a]pyridin-6-yl)-2,8-dimethylimidazo[1,2-b]pyridazine] showed an IC50 of less than 100 nM.
